Read-outs that look alike come from different tables or passages of the source.
Tests used:
[1] = tested on: PKB Ser473 phosphorylation in Rat1-myr-HA-p110 beta cells; assay: Reverse protein array, PKB Ser473 phosphorylation in Rat1-myr-HA-p110 beta cells; format: cell-based; details: Rattus norvegicus, 0.5 h, 30 minutes compound incubation, read-out: p-PKB/IC50_beta
[2] = tested on: S6 Ribosomal Protein phosphorylation Ser235/236 in TSC1 null mouse embryo fibroblast (MEF) cells; assay: Reverse protein array, S6 Ribosomal Protein phosphorylation in TSC1 null MEF cells; format: cell-based; details: 1 h, TSC1-/- MEFs, 60 minutes
Method in brief: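 Phospho-S6 (Ser235/236) was quantified by reverse protein array of cell lysates with a phospho-specific primary antibody. […]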

IC50 [1] [nM] | SMILES | IC50 ([2]; read-out: p-S6 IC50) [nM] | IC50 ([2]; read-out: p-S6) [nM]
7.5 | CCNc1cc(-c2ccc3ncc4c(c3c2)n(-c2ccc(OC)nc2C)c(=O)n4C)cnc1C [Example 11.7, 8-(5-Ethylamino-6-methyl-pyridin-3-yl)-1-(6-methoxy-2-methyl-pyridin-3-yl)-3-methyl-1,3-dihydro-imidazo[4,5-c]quinolin-2-one] | 2 | 
< 4.57 | CNc1cc(-c2ccc3ncc4c(c3c2)n(-c2ccc(N(C)C)nc2C)c(=O)n4C)cnc1C [Example 19.2, 1-(6-Dimethylamino-2-methyl-pyridin-3-yl)-3-methyl-8-(6-methyl-5-methylamino-pyridin-3-yl)-1,3-dihydro-imidazo[4,5-c]quinolin-2-one] | 1.1 | 
 | COc1ccc(-n2c(=O)n(C)c3cnc4ccc(-c5ccc6nccn6c5)cc4c32)c(OC)n1 [Example 8.10, 1-(2,6-Dimethoxy-pyridin-3-yl)-8-imidazo[1,2-a]pyridin-6-yl-3-methyl-1,3-dihydro-imidazo[4,5-c]quinolin-2-one] | 6.8 | 
15.7 | CCOc1ccc(-c2ccc3ncc4c(c3c2)n(-c2ccc(OCCOC)nc2C)c(=O)n4C)cn1 [Example 13.1, 8-(6-Ethoxy-pyridin-3-yl)-1-[6-(2-methoxy-ethoxy)-2-methyl-pyridin-3-yl]-3-methyl-1,3-dihydro-imidazo[4,5-c]quinolin-2-one] | 18 | 
13.9 | COc1ncccc1-n1c(=O)n(C)c2cnc3ccc(-c4cnc(N)c(C(F)(F)F)c4)cc3c21 [Example 1.3, 8-(6-Amino-5-trifluoromethyl-pyridin-3-yl)-1-(2-methoxy-pyridin-3-yl)-3-methyl-1,3-dihydro-imidazo[4,5-c]quinolin-2-one] |  | 1.52
27.9 | Cc1nc(N2CC(F)(F)C(F)(F)C2)ccc1-n1c(=O)n(C)c2cnc3ccc(-c4cncc(C(C)(C)O)c4)cc3c21 [Example 35.1, 8-[5-(1-Hydroxy-1-methyl-ethyl)-pyridin-3-yl]-3-methyl-1-[2-methyl-6-(3,3,4,4-tetrafluoro-pyrrolidin-1-yl)-pyridin-3-yl]-1,3-dihydro-imidazo[4,5-c]quinolin-2-one] | 0.79 | 
27.9 | CCOc1ccc(-c2ccc3ncc4c(c3c2)n(-c2ccc(N(C)CCOC)nc2C)c(=O)n4C)cn1 [Example 15.3, 8-(6-Ethoxy-pyridin-3-yl)-1-{6-[(2-methoxy-ethyl)-methyl-amino]-2-methyl-pyridin-3-yl}-3-methyl-1,3-dihydro-imidazo[4,5-c]quinolin-2-one] | 130 | 
77.6 | COCCOc1ccc(-n2c(=O)n(C)c3cnc4ccc(-c5cnc(COC)c(OC)c5)cc4c32)c(C)n1 [Example 22.3, 1-[6-(2-Methoxy-ethoxy)-2-methyl-pyridin-3-yl]-8-(5-methoxy-6-methoxymethyl-pyridin-3-yl)-3-methyl-1,3-dihydro-imidazo[4,5-c]quinolin-2-one] | 15 | 
39.5 | COCCOc1cc(-c2ccc3ncc4c(c3c2)n(-c2ccc(OC)nc2OC)c(=O)n4C)cnc1C [Example 8.9, 1-(2,6-Dimethoxy-pyridin-3-yl)-8-[5-(2-methoxy-ethoxy)-6-methyl-pyridin-3-yl]-3-methyl-1,3-dihydro-imidazo[4,5-c]quinolin-2-one] | 4 | 
7.6 | CNc1ncc(-c2ccc3ncc4c(c3c2)n(-c2ccc(F)nc2C)c(=O)n4C)cc1C(F)(F)F [Example 7.13, 1-(6-Fluoro-2-methyl-pyridin-3-yl)-3-methyl-8-(6-methylamino-5-trifluoromethyl-pyridin-3-yl)-1,3-dihydro-imidazo[4,5-c]quinolin-2-one] |  | 
15.1 | CNc1ccc(-c2ccc3ncc4c(c3c2)n(-c2ccc(N(C)CCOC)nc2C)c(=O)n4C)cn1 [Example 15.4, 1-{6-[(2-Methoxy-ethyl)-methyl-amino]-2-methyl-pyridin-3-yl}-3-methyl-8-(6-methylamino-pyridin-3-yl)-1,3-dihydro-imidazo[4,5-c]quinolin-2-one] | 3 | 
 | Cc1cc(F)ncc1-n1c(=O)n(C)c2cnc3ccc(-c4cnc5c(ccn5C)c4)cc3c21 [Example 16.5, 1-(6-Fluoro-4-methyl-pyridin-3-yl)-3-methyl-8-(1-methyl-1H-pyrrolo[2,3-b]pyridin-5-yl)-1,3-dihydro-imidazo[4,5-c]quinolin-2-one] | 12.6 | 
50.6 | CCOCc1cc(-c2ccc3ncc4c(c3c2)n(-c2ccc(F)nc2C)c(=O)n4C)cnc1N [Example 7.15, 8-(6-Amino-5-ethoxymethyl-pyridin-3-yl)-1-(6-fluoro-2-methyl-pyridin-3-yl)-3-methyl-1,3-dihydro-imidazo[4,5-c]quinolin-2-one] | 8 | 
23.2 | COCCN(C)c1ccc(-n2c(=O)n(C)c3cnc4ccc(-c5cncc(N)c5)cc4c32)c(C)n1 [Example 15.8, 8-(5-Amino-pyridin-3-yl)-1-{6-[(2-methoxy-ethyl)-methyl-amino]-2-methyl-pyridin-3-yl}-3-methyl-1,3-dihydro-imidazo[4,5-c]quinolin-2-one] | 6 | 
40.4 | COCCN(C)c1ccc(-n2c(=O)n(C)c3cnc4ccc(-c5cnc(CO)c(OC)c5)cc4c32)c(C)n1 [Example 15.9, 8-(6-Hydroxymethyl-5-methoxy-pyridin-3-yl)-1-{6-[(2-methoxy-ethyl)-methyl-amino]-2-methyl-pyridin-3-yl}-3-methyl-1,3-dihydro-imidazo[4,5-c]quinolin-2-one] |  | 
170 | COCC(=O)Nc1ccc(-n2c(=O)n(C)c3cnc4ccc(-c5cncc(N)c5)cc4c32)c(C)n1 [Example 20.1, N-{5-[8-(5-Amino-pyridin-3-yl)-3-methyl-2-oxo-2,3-dihydro-imidazo[4,5-c]quinolin-1-yl]-6-methyl-pyridin-2-yl}-2-methoxy-acetamide] | 32 | 
50.6 | CNC(=O)c1cc(-c2ccc3ncc4c(c3c2)n(-c2ccc(F)nc2C)c(=O)n4C)cnc1N [Example 7.14, 2-Amino-5-[1-(6-fluoro-2-methyl-pyridin-3-yl)-3-methyl-2-oxo-2,3-dihydro-1H-imidazo[4,5-c]quinolin-8-yl]-N-methyl-nicotinamide] |  | 
324 | COc1ncccc1-n1c(=O)n(C)c2cnc3ccc(-c4ccc(F)nc4)cc3c21 [Example 1.8, 8-(6-Fluoro-pyridin-3-yl)-1-(2-methoxy-pyridin-3-yl)-3-methyl-1,3-dihydro-imidazo[4,5-c]quinolin-2-one] |  | 
13.5 | CNc1ncc(-c2ccc3ncc4c(c3c2)n(-c2ccc(F)nc2C)c(=O)n4C)cc1F [Example 7.12, 8-(5-Fluoro-6-methylamino-pyridin-3-yl)-1-(6-fluoro-2-methyl-pyridin-3-yl)-3-methyl-1,3-dihydro-imidazo[4,5-c]quinolin-2-one] |  | 
40.2 | COc1cc(-c2ccc3ncc4c(c3c2)n(-c2ccc(N(C)C)nc2C)c(=O)n4C)cnc1CO [Example 19.4, 1-(6-Dimethylamino-2-methyl-pyridin-3-yl)-8-(6-hydroxymethyl-5-methoxy-pyridin-3-yl)-3-methyl-1,3-dihydro-imidazo[4,5-c]quinolin-2-one] |  | 
50.3 | COc1ccc(-c2ccc3ncc4c(c3c2)n(-c2cccnc2)c(=O)n4C)cc1OC [Example 5.2, 8-(3,4-Dimethoxy-phenyl)-3-methyl-1-pyridin-3-yl-1,3-dihydro-imidazo[4,5-c]quinolin-2-one] |  | 
945 | COc1ccc(-c2ccc3ncc4c(c3c2)n(-c2ncccc2C)c(=O)n4C)cn1 [Example 3.13, 8-(6-Methoxy-pyridin-3-yl)-3-methyl-1-(3-methyl-pyridin-2-yl)-1,3-dihydro-imidazo[4,5-c]quinolin-2-one] |  | 
11.2 | Cc1nc(N(C)C)ccc1-n1c(=O)n(C)c2cnc3ccc(-c4cncc(N)c4)cc3c21 [Example 19.5, 8-(5-Amino-pyridin-3-yl)-1-(6-dimethylamino-2-methyl-pyridin-3-yl)-3-methyl-1,3-dihydro-imidazo[4,5-c]quinolin-2-one] |  | 
167 | COCC(=O)Nc1ccc(-n2c(=O)n(C)c3cnc4ccc(-c5cncc(OC(C)C)c5)cc4c32)c(C)n1 [Example 20.5, N-{5-[8-(5-Isopropoxy-pyridin-3-yl)-3-methyl-2-oxo-2,3-dihydro-imidazo[4,5-c]quinolin-1-yl]-6-methyl-pyridin-2-yl}-2-methoxy-acetamide] |  | 
108 | Cc1cccnc1-n1c(=O)n(C)c2cnc3ccc(-c4cnc5ccccc5c4)cc3c21 [Example 3.8, 3-Methyl-1-(3-methyl-pyridin-2-yl)-8-quinolin-3-yl-1,3-dihydro-imidazo[4,5-c]quinolin-2-one] |  | 
152 | COc1ccc(-c2ccc3ncc4c(c3c2)n(-c2cccnc2)c(=O)n4C)cn1 [Example 5.4, 8-(6-Methoxy-pyridin-3-yl)-3-methyl-1-pyridin-3-yl-1,3-dihydro-imidazo[4,5-c]quinolin-2-one] |  | 
 | CCNc1cc(-c2ccc3ncc4c(c3c2)n(-c2ccc(OC)nc2Cl)c(=O)n4C)cnc1C [Example 18.1, 1-(2-Chloro-6-methoxy-pyridin-3-yl)-8-(5-ethylamino-6-methyl-pyridin-3-yl)-3-methyl-1,3-dihydro-imidazo[4,5-c]quinolin-2-one] | < 0.457 | 
31.1 | COc1ccc(-n2c(=O)n(C)c3cnc4ccc(-c5cnc(CO)c(OC)c5)cc4c32)c(C)n1 [Example 11.8, 8-(6-Hydroxymethyl-5-methoxy-pyridin-3-yl)-1-(6-methoxy-2-methyl-pyridin-3-yl)-3-methyl-1,3-dihydro-imidazo[4,5-c]quinolin-2-one] |  | 
 | COc1ccc(-n2c(=O)n(C)c3cnc4ccc(-c5cnc(N(C)C)nc5)cc4c32)c(Cl)n1 [Example 18.3, 1-(2-Chloro-6-methoxy-pyridin-3-yl)-8-(2-dimethylamino-pyrimidin-5-yl)-3-methyl-1,3-dihydro-imidazo[4,5-c]quinolin-2-one] | 4.3 | 

Source: US20100311714A1, “1H-IMIDAZO[4,5-c]QUINOLINONE COMPOUNDS” (priority 2009, published 2010)
